Test results as given in patent US9580390B2, “Indazole compounds as kinase inhibitors and method of treating cancer with same” (University Health Network, priority 2011, dated 2017).

Key:
[1] = system: colon cancer cells (HCT116); assay: Cancer cell line growth inhibition (SRB assay); format: cell-based; settings: Homo sapiens, HCT-116; HCT116 colon cancer cells, SRB assay; read-out: Cancer Cell Line GI50 Range HCT116
[2] = system: ovarian cancer cells (PA-1); assay: Cancer cell line growth inhibition (SRB assay); format: cell-based; settings: PA-1 ovarian cancer cells, SRB assay; read-out: Cancer Cell Line GI50 Range PA-1

Row | GI50 [1] [nM] | GI50 [2] [nM] | Structure (SMILES)
1 | < 100 | 100 to 500 | O=C(Nc1ccc2[nH]nc(-c3ccc(N4CCC(O)CC4)cc3)c2c1)C(c1ccsc1)N1CCCCC1 (centres unmarked) [Example A83, N-(3-(4-(4-hydroxypiperidin-1-yl)phenyl)-1H-indazol-5-yl)-2-(piperidin-1-yl)-2-(thiophen-3-yl)acetamide]
2 | 100 to 500 | 100 to 500 | COc1cc(-c2n[nH]c3ccc(C(=O)NC(c4ccccc4)C4CC4)cc23)ccc1OC1CCN(C2COC2)CC1 (centres unmarked) [Example A194, N-(cyclopropyl(phenyl)methyl)-3-(3-methoxy-4-((1-(oxetan-3-yl)piperidin-4-yl)oxy)phenyl)-1H-indazole-5-carboxamide]
3 | < 100 | 100 to 500 | CCc1cccc(CC)c1NC(=O)Nc1ccc2[nH]nc(-c3ccc(N4CCOCC4)cc3)c2c1 [Example A86, 1-(2,6-diethylphenyl)-3-(3-(4-morpholinophenyl)-1H-indazol-5-yl)urea]
4 | 100 to 500 | 100 to 500 | O=CN1CCC(Oc2ccc(-c3n[nH]c4ccc(C(=O)N[C@@H](c5ccccn5)C5CC5)cc34)cc2)CC1 [Example A203, (R)-N-(cyclopropyl(pyridin-2-yl)methyl)-3-(4-((1-formylpiperidin-4-yl)oxy)phenyl)-1H-indazole-5-carboxamide]
5 | 100 to 500 | 100 to 500 | CCC(NC(=O)c1ccc2[nH]nc(-c3ccc(OC4CCN(CCOC)CC4)cc3)c2c1)c1ccccc1 (centres unmarked) [Example A153, 3-(4-((1-(2-methoxyethyl)piperidin-4-yl)oxy)phenyl)-N-(1-phenylpropyl)-1H-indazole-5-carboxamide]
6 | 100 to 500 | 100 to 500 | CN1CCOC(c2ccc(-c3n[nH]c4ccc(C(=O)NC(c5ccccc5)C5CC5)cc34)cc2)C1 (centres unmarked) [Example A139, N-(cyclopropyl(phenyl)methyl)-3-(4-(4-methylmorpholin-2-yl)phenyl)-1H-indazole-5-carboxamide]
7 | > 500 | > 500 | CN1CCC(Oc2cccc(-c3n[nH]c4ccc(NC(=O)C(c5ccsc5)N5CCCC5)cc34)c2)CC1 (centres unmarked) [Example A99, N-(3-(3-((1-methylpiperidin-4-yl)oxy)phenyl)-1H-indazol-5-yl)-2-(pyrrolidin-1-yl)-2-(thiophen-3-yl)acetamide]
8 | 100 to 500 | 100 to 500 | COC(C(=O)Nc1ccc2[nH]nc(-c3ccc(N4CCC(O)CC4)cc3)c2c1)c1ccsc1 (centres unmarked) [Example A87, N-(3-(4-(4-hydroxypiperidin-1-yl)phenyl)-1H-indazol-5-yl)-2-methoxy-2-(thiophen-3-yl)acetamide]
9 | < 100 | < 100 | O=C(NC(c1ccccc1)C1CCC1)c1ccc2[nH]nc(-c3ccc(N4CCC(O)CC4)cc3)c2c1 (centres unmarked) [Example A100, N-(cyclobutyl(phenyl)methyl)-3-(4-(4-hydroxypiperidin-1-yl)phenyl)-1H-indazole-5-carboxamide]
10 | 100 to 500 | < 100 | O=C(NC(c1ccsc1)C1CCC1)c1ccc2[nH]nc(-c3ccc(N4CCOCC4)cc3)c2c1 (centres unmarked) [Example A123, N-(cyclobutyl(thiophen-3-yl)methyl)-3-(4-morpholinophenyl)-1H-indazole-5-carboxamide]
11 | < 100 | < 100 | O=C(N[C@@H](c1ccccn1)C1CC1)c1ccc2[nH]nc(-c3ccc(OC4CCN(C5COC5)CC4)cc3)c2c1 [Example A196, (R)-N-(cyclopropyl(pyridin-2-yl)methyl)-3-(4-((1-(oxetan-3-yl)piperidin-4-yl)oxy)phenyl)-1H-indazole-5-carboxamide]
12 | 100 to 500 | 100 to 500 | CN1CCC(Oc2ccc(-c3n[nH]c4ccc(C(=O)NC(c5ccccc5Cl)C5CCCC5)cc34)cc2)CC1 (centres unmarked) [Example A199, N-((2-chlorophenyl)(cyclopentyl)methyl)-3-(4-((1-methylpiperidin-4-yl)oxy)phenyl)-1H-indazole-5-carboxamide]
13 | < 100 | < 100 | CN1CCC(Oc2ccc(-c3n[nH]c4ccc(C(=O)NC(c5ccsc5)C5CCC5)cc34)cc2)CC1 (centres unmarked) [Example A121, N-(cyclobutyl(thiophen-3-yl)methyl)-3-(4-((1-methylpiperidin-4-yl)oxy)phenyl)-1H-indazole-5-carboxamide]
14 | < 100 | < 100 | CC(C)(O)C1CCN(c2ccc(-c3n[nH]c4ccc(NC(=O)C(c5ccsc5)N5CCCC5)cc34)cc2)CC1 (centres unmarked) [Example A111, N-(3-(4-(4-(2-hydroxypropan-2-yl)piperidin-1-yl)phenyl)-1H-indazol-5-yl)-2-(pyrrolidin-1-yl)-2-(thiophen-3-yl)acetamide]
15 | 100 to 500 | 100 to 500 | O=C(NC(c1ccccc1)C1CC1)c1ccc2[nH]nc(-c3ccc(OCCN4CCOCC4)cc3)c2c1 (centres unmarked) [Example A140, N-(cyclopropyl(phenyl)methyl)-3-(4-(2-morpholinoethoxy)phenyl)-1H-indazole-5-carboxamide]
16 | < 100 | < 100 | O=C(Nc1ccc2[nH]nc(-c3ccc(N4CC(O)C4)cc3)c2c1)C(c1ccsc1)N1CCCC1 (centres unmarked) [Example A120, N-(3-(4-(3-Hydroxyazetidin-1-yl)phenyl)-1H-indazol-5-yl)-2-(pyrrolidin-1-yl)-2-(thiophen-3-yl)acetamide]

Row | GI50 [1] [nM] | GI50 [2] [nM] | Structure (SMILES)
17 | 100 to 500 | 100 to 500 | COCCN1CCC(Oc2ccc(-c3n[nH]c4ccc(NC(=O)[C@H](OC)c5ccccc5)cc34)cc2)CC1 [Example A107, (R)-2-methoxy-N-(3-(4-((1-(2-methoxyethyl)piperidin-4-yl)oxy)phenyl)-1H-indazol-5-yl)-2-phenylacetamide]
18 | 100 to 500 | 100 to 500 | O=C(NC(c1ccccn1)C1CC1)c1ccc2[nH]nc(-c3ccc(OC4CN(C5COC5)C4)cc3)c2c1 (centres unmarked) [Example A209, N-(cyclopropyl(pyridin-2-yl)methyl)-3-(4-((1-(oxetan-3-yl)azetidin-3-yl)oxy)phenyl)-1H-indazole-5-carboxamide]
19 | 100 to 500 | > 500 | CN1CCOc2ccc(-c3n[nH]c4ccc(NC(=O)C(c5ccsc5)N5CCCC5)cc34)cc2C1 (centres unmarked) [Example A90, N-(3-(4-methyl-2,3,4,5-tetrahydrobenzo[f][1,4]oxazepin-7-yl)-1H-indazol-5-yl)-2-(pyrrolidin-1-yl)-2-(thiophen-3-yl)acetamide]
20 | 100 to 500 | 100 to 500 | COc1cc(-c2n[nH]c3ccc(C(=O)NC(c4ccccc4)C4CC4)cc23)ccc1OC1CCN(C=O)CC1 (centres unmarked) [Example A205, N-(cyclopropyl(phenyl)methyl)-3-(4-((1-formylpiperidin-4-yl)oxy)-3-methoxyphenyl)-1H-indazole-5-carboxamide]
21 | 100 to 500 | 100 to 500 | CCc1cccc(CC)c1NC(=O)Nc1ccc2[nH]nc(-c3ccc(C4CN(C)CCO4)cc3)c2c1 (centres unmarked) [Example A124, 1-(2,6-diethylphenyl)-3-(3-(4-(4-methylmorpholin-2-yl)phenyl)-1H-indazol-5-yl)urea]
22 | > 500 | > 500 | CN1CCN(C)c2ccc(-c3n[nH]c4ccc(NC(=O)C(c5ccsc5)N5CCCC5)cc34)cc2C1 (centres unmarked) [Example A93, N-(3-(1,4-dimethyl-2,3,4,5-tetrahydro-1H-benzo[e][1,4]diazepin-7-yl)-1H-indazol-5-yl)-2-(pyrrolidin-1-yl)-2-(thiophen-3-yl)acetamide]
23 | < 100 | < 100 | O=C(Nc1ccc2[nH]nc(-c3ccc(N4CCC(O)CC4)cc3)c2c1)C(c1ccccc1)C1CC1 (centres unmarked) [Example A103, 2-cyclopropyl-N-(3-(4-(4-hydroxypiperidin-1-yl)phenyl)-1H-indazol-5-yl)-2-phenylacetamide]
24 | 100 to 500 | 100 to 500 | COc1cc(-c2n[nH]c3ccc(C(=O)NC(c4ccccn4)C4CC4)cc23)ccc1OC1CCN(C=O)CC1 (centres unmarked) [Example A206, N-(cyclopropyl(pyridin-2-yl)methyl)-3-(4-((1-formylpiperidin-4-yl)oxy)-3-methoxyphenyl)-1H-indazole-5-carboxamide]
25 | > 500 | 100 to 500 | CN1CCC(Oc2ccc(-c3n[nH]c4ccc(NC(=O)C5OCCc6ccccc65)cc34)cc2)CC1 (centres unmarked) [Example A146, N-(3-(4-(1-Methylpiperidin-4-yloxy)phenyl)-1H-indazol-5-yl)isochroman-1-carboxamide]
26 | 100 to 500 | 100 to 500 | O=C(NC(c1ccccc1)C1CC1)c1ccc2[nH]nc(-c3ccc(OC4CCN(CCF)CC4)cc3)c2c1 (centres unmarked) [Example A122, N-(cyclopropyl(phenyl)methyl)-3-(4-((1-(2-fluoroethyl)piperidin-4-yl)oxy)phenyl)-1H-indazole-5-carboxamide]
27 | 100 to 500 | 100 to 500 | CO[C@@H](C(=O)Nc1ccc2[nH]nc(-c3ccc(O[C@@H]4CCN(C)C[C@@H]4F)cc3)c2c1)c1ccccc1 (relative stereo) [Example A135, (R)-N-(3-(4-(((3S,4R)-3-fluoro-1-methylpiperidin-4-yl)oxy)phenyl)-1H-indazol-5-yl)-2-methoxy-2-phenylacetamide]
28 | 100 to 500 | 100 to 500 | CN1CCC(Oc2ccc(-c3n[nH]c4ccc(NC(=O)C5CCCc6ccccc65)cc34)cc2)CC1 (centres unmarked) [Example A18]
29 | 100 to 500 | 100 to 500 | COC1CCN(c2ccc(-c3n[nH]c4ccc(NC(=O)C(c5ccsc5)N5CCCC5)cc34)cc2)CC1 (centres unmarked) [Example A116, N-(3-(4-(4-methoxypiperidin-1-yl)phenyl)-1H-indazol-5-yl)-2-(pyrrolidin-1-yl)-2-(thiophen-3-yl)acetamide]
30 | 100 to 500 | 100 to 500 | CN1CCC(Oc2ccc(-c3n[nH]c4ccc(C(=O)N[C@@H](CCO)c5ccccc5)cc34)cc2)CC1 [Example A125, (S)-N-(3-hydroxy-1-phenylpropyl)-3-(4-((1-methylpiperidin-4-yl)oxy)phenyl)-1H-indazole-5-carboxyamide]
31 | 100 to 500 | 100 to 500 | COCCN1CCC(Oc2ccc(-c3n[nH]c4ccc(C(=O)NC(c5ccccc5)C5CCCC5)cc34)cc2)CC1 (centres unmarked) [Example A161, N-(cyclopentyl(phenyl)methyl)-3-(4-((1-(2-methoxyethyl)piperidin-4-yl)oxy)phenyl)-1H-indazole-5-carboxamide]
